Data from patent publication US20210137117A1, “HERBICIDAL MIXTURES” (Bayer Aktiengesellschaft, priority 2017, published 2021).
Where “and” joins values, the source holds several entries; their conditions need not be identical. Identical values can stand only once.

Assays:
Experiment in all cases: Pre-emergence action against weeds (greenhouse)
Type in all cases: in vivo
[1] = system: ALOMY—sensitive (Alopecurus myosuroides)
Text: (§1) Depending on the trial conditions, the soil of the standard field soil is sterile or not sterile.
(§2) The amount of water used for spray application was 300l/ha.
ALOMY—sensitive (Alopecurus myosuroides) sensitive to customary herbicidally active compounds.
(§3) Insofar as herbicidal effects of the compositions according to the invention compared to mixtures of the prior art or compared to components applied individually against economically important mono- and dicotyledonous harmful plants were the centre of attention, the synergistic herbicidal activities were calculated using Colby's formula (cf. S. R. Colby; Weeds 15 (1967), 20-22): […]

[2] = system: ALOMY—resistant (Alopecurus myosuroides)
Text: as §1, §2
ALOMY—resistant (Alopecurus myosuroides) resistant to herbicidally active compounds of the HRAC groups A and B; population mixture of field origin having increased metabolic resistance (IMR) and some target site resistance (TSR).
as §3

[3] = system: LOLRI—sensitive (Lolium rigidum)
Text: as §1, §2
LOLRI—sensitive (Lolium rigidum) sensitive to customary herbicidally active compounds.
as §3

[4] = system: LOLRI—resistant (Lolium rigidum)
Text: as §1, §2
LOLRI—resistant (Lolium rigidum) resistant to herbicidally active compounds of the HRAC groups A and B; population mixture of field origin having increased metabolic resistance (IMR) and some target site resistance (TSR).
as §3

AVEFA (Avenafatua) = system: AVEFA (Avenafatua)
Text: as §1, §2
AVEFA (Avenafatua)—Wild oat
as §3

BROST (Bromus sterilis) = system: BROST (Bromus sterilis)
Text: as §1, §2
BROST (Bromus sterilis)—Bromegrass, barren
as §3

PAPRH (Papaver rhoeas) = system: PAPRH (Papaver rhoeas)
Text: as §1, §2
PAPRH (Papaver rhoeas)—Poppy, common
as §3

[5] = system: SORHA (Sorghum halepense)
Text: as §1, §2
SORHA (Sorghum halepense)—Johnsongrass
as §3

CENCY (Centaurea cyanus) = system: CENCY (Centaurea cyanus)
Text: as §1, §2
CENCY (Centaurea cyanus)—Cornflower
as §3

[6] = system: VERHE (Veronica hederaefolia)
Text: as §1, §2
VERHE (Veronica hederaefolia)—Speedwell, iveleaf
as §3

EMEAU (Emex australis) = system: EMEAU (Emex australis)
Text: as §1, §2
EMEAU (Emex australis)—Cathead
as §3

[7] = system: RAPRA (Raphanus raphanistrum)
Text: as §1, §2
RAPRA (Raphanus raphanistrum)—Charlock, jointed
as §3

BRSNW (Brassica napus) = system: BRSNW (Brassica napus)
Text: as §1, §2
BRSNW (Brassica napus)—Rape, winter
as §3

[8] = system: TRZAS (Triticum aestivum)
Text: as §1, §2
TRZAS (Triticum aestivum)—Wheat, spring
as §3

HORVS (Hordeum vulgare) = system: HORVS (Hordeum vulgare)
Text: as §1, §2
HORVS (Hordeum vulgare)—Barley, spring
as §3

[9] = pre-emergence, dose 100 g AS/ha

Work on `CC1(C)CON(Cc2ccc(Cl)cc2Cl)C1=O` [2-[(2,4-dichlorophenyl)methyl]-4,4-dimethyl-3-isoxazolidinone] yielded a herbicidal action ([1]; 10 g AS/ha) of 0%, a herbicidal action ([1]; 25 g AS/ha) of 0% and a herbicidal action ([1]; 50 g AS/ha) of 20%. For the same compound, the herbicidal action ([1]; 100 g AS/ha) was 60%, the herbicidal action ([1]; 200 g AS/ha) was 95% and the herbicidal action ([1]; 250 g AS/ha) was 93%. The herbicidal action ([1]; 400 g AS/ha) was 95%, the herbicidal action ([1]; 500 g AS/ha) was 95% and the “Herbicidal action ALOMY sensitive” value [1, 9] was 60. For the same compound, the herbicidal action ([2]; 10 g AS/ha) was 0%, the herbicidal action ([2]; 25 g AS/ha) was 0% and the herbicidal action ([2]; 50 g AS/ha) was 10% and 20%. The herbicidal action ([2]; 100 g AS/ha) was 60%, the herbicidal action ([2]; 200 g AS/ha) was 80% and the herbicidal action ([2]; 250 g AS/ha) was 93%. The herbicidal action ([2]; 400 g AS/ha) was 95%, the herbicidal action ([2]; 500 g AS/ha) was 95% and the “Herbicidal action ALOMY resistant” value [2, 9] was 60. For the same compound, the herbicidal action ([3]; 10 g AS/ha) was 0%, the herbicidal action ([3]; 25 g AS/ha) was 30% and the herbicidal action ([3]; 50 g AS/ha) was 70%. For the same compound, the herbicidal action ([3]; 100 g AS/ha) was 70%, the herbicidal action ([3]; 200 g AS/ha) was 90% and the herbicidal action ([3]; 250 g AS/ha) was 95%. For the same compound, the herbicidal action ([3]; 400 g AS/ha) was 95%, the herbicidal action ([3]; 500 g AS/ha) was 95% and the “Herbicidal action LOLRI sensitive” value [3, 9] was 70. The herbicidal action ([4]; 10 g AS/ha) was 0%, the herbicidal action ([4]; 25 g AS/ha) was 5% and the herbicidal action ([4]; 50 g AS/ha) was 60% and 30%. For the same compound, the herbicidal action ([4]; 100 g AS/ha) was 70% and 75%, the herbicidal action ([4]; 200 g AS/ha) was 80% and the herbicidal action ([4]; 250 g AS/ha) was 80%. The herbicidal action ([4]; 400 g AS/ha) was 94%, the herbicidal action ([4]; 500 g AS/ha) was 94% and the “Herbicidal action LOLRI resistant” value [4, 9] was 75. For the same compound, the herbicidal action (AVEFA (Avenafatua); 10 g AS/ha) was 0%, the herbicidal action (AVEFA (Avenafatua); 25 g AS/ha) was 5% and the herbicidal action (AVEFA (Avenafatua); 50 g AS/ha) was 15%. The herbicidal action (AVEFA (Avenafatua); 100 g AS/ha) was 50%, the herbicidal action (AVEFA (Avenafatua); 200 g AS/ha) was 70% and the herbicidal action (AVEFA (Avenafatua); 250 g AS/ha) was 75%. The herbicidal action (AVEFA (Avenafatua); 400 g AS/ha) was 75%, the herbicidal action (AVEFA (Avenafatua); 500 g AS/ha) was 80% and the “Herbicidal action AVEFA” value (AVEFA (Avenafatua); [9]) was 50. The herbicidal action (BROST (Bromus sterilis); 10 g AS/ha) was 0%, the herbicidal action (BROST (Bromus sterilis); 25 g AS/ha) was 0% and the herbicidal action (BROST (Bromus sterilis); 50 g AS/ha) was 0%. The herbicidal action (BROST (Bromus sterilis); 100 g AS/ha) was 20%, the herbicidal action (BROST (Bromus sterilis); 200 g AS/ha) was 30% and the herbicidal action (BROST (Bromus sterilis); 250 g AS/ha) was 65%. For the same compound, the herbicidal action (BROST (Bromus sterilis); 400 g AS/ha) was 70%, the herbicidal action (BROST (Bromus sterilis); 500 g AS/ha) was 75% and the “Herbicidal action BROST” value (BROST (Bromus sterilis); [9]) was 20. It also gave a herbicidal action (PAPRH (Papaver rhoeas); 250 g AS/ha) of 95%, a herbicidal action (PAPRH (Papaver rhoeas); 400 g AS/ha) of 95% and a herbicidal action (PAPRH (Papaver rhoeas); 500 g AS/ha) of 95%. It also gave a herbicidal action ([5]; 10 g AS/ha) of 0%, a herbicidal action ([5]; 25 g AS/ha) of 0% and a herbicidal action ([5]; 50 g AS/ha) of 30%. For the same compound, the herbicidal action ([5]; 100 g AS/ha) was 40%, the herbicidal action ([5]; 200 g AS/ha) was 60% and the “Herbicidal action SORHA” value [5, 9] was 40. It also gave a herbicidal action (CENCY (Centaurea cyanus); 10 g AS/ha) of 0%, a herbicidal action (CENCY (Centaurea cyanus); 25 g AS/ha) of 0% and a herbicidal action (CENCY (Centaurea cyanus); 50 g AS/ha) of 10%. For the same compound, the herbicidal action (CENCY (Centaurea cyanus); 100 g AS/ha) was 70%, the herbicidal action (CENCY (Centaurea cyanus); 200 g AS/ha) was 88% and the “Herbicidal action CENCY” value (CENCY (Centaurea cyanus); [9]) was 70. For the same compound, the herbicidal action ([6]; 10 g AS/ha) was 15%, the herbicidal action ([6]; 25 g AS/ha) was 40% and the herbicidal action ([6]; 50 g AS/ha) was 70%. For the same compound, the herbicidal action ([6]; 100 g AS/ha) was 80%, the herbicidal action ([6]; 200 g AS/ha) was 90% and the herbicidal action ([6]; 250 g AS/ha) was 95%. For the same compound, the herbicidal action ([6]; 400 g AS/ha) was 95%, the herbicidal action ([6]; 500 g AS/ha) was 95% and the “Herbicidal action VERHE” value [6, 9] was 80. For the same compound, the herbicidal action (EMEAU (Emex australis); 10 g AS/ha) was 0%, the herbicidal action (EMEAU (Emex australis); 25 g AS/ha) was 0% and the herbicidal action (EMEAU (Emex australis); 50 g AS/ha) was 10%. For the same compound, the herbicidal action (EMEAU (Emex australis); 200 g AS/ha) was 40%, the herbicidal action (EMEAU (Emex australis); 250 g AS/ha) was 60% and the herbicidal action (EMEAU (Emex australis); 400 g AS/ha) was 70%. The herbicidal action (EMEAU (Emex australis); 500 g AS/ha) was 70%, the “Herbicidal action EMEAU” value (EMEAU (Emex australis); [9]) was 20 and the herbicidal action ([7]; 10 g AS/ha) was 0%. It also gave a herbicidal action ([7]; 25 g AS/ha) of 5%, a herbicidal action ([7]; 50 g AS/ha) of 20% and a herbicidal action ([7]; 100 g AS/ha) of 40%. It also gave a herbicidal action ([7]; 200 g AS/ha) of 50%, a herbicidal action ([7]; 250 g AS/ha) of 60% and a herbicidal action ([7]; 400 g AS/ha) of 80%. The herbicidal action ([7]; 500 g AS/ha) was 90%, the “Herbicidal action RAPRA” value [7, 9] was 40 and the herbicidal action (BRSNW (Brassica napus); 10 g AS/ha) was 0%. The herbicidal action (BRSNW (Brassica napus); 25 g AS/ha) was 0%, the herbicidal action (BRSNW (Brassica napus); 50 g AS/ha) was 0% and the herbicidal action (BRSNW (Brassica napus); 100 g AS/ha) was 0%. For the same compound, the herbicidal action (BRSNW (Brassica napus); 200 g AS/ha) was 5%, the herbicidal action (BRSNW (Brassica napus); 250 g AS/ha) was 20% and the herbicidal action (BRSNW (Brassica napus); 400 g AS/ha) was 20%. For the same compound, the herbicidal action (BRSNW (Brassica napus); 500 g AS/ha) was 20%, the “Herbicidal action BRSNW” value (BRSNW (Brassica napus); [9]) was 0 and the herbicidal action ([8]; 10 g AS/ha) was 0%. For the same compound, the herbicidal action ([8]; 25 g AS/ha) was 0%, the herbicidal action ([8]; 50 g AS/ha) was 0% and the herbicidal action ([8]; 100 g AS/ha) was 5%. For the same compound, the herbicidal action ([8]; 200 g AS/ha) was 40%, the herbicidal action ([8]; 250 g AS/ha) was 50% and the herbicidal action ([8]; 400 g AS/ha) was 60%. The herbicidal action ([8]; 500 g AS/ha) was 70%, the “Herbicidal action (crop damage) TRZAS” value [8, 9] was 5 and the herbicidal action (HORVS (Hordeum vulgare); 10 g AS/ha) was 0%. For the same compound, the herbicidal action (HORVS (Hordeum vulgare); 25 g AS/ha) was 2%, the herbicidal action (HORVS (Hordeum vulgare); 50 g AS/ha) was 5% and the herbicidal action (HORVS (Hordeum vulgare); 100 g AS/ha) was 15%. It also gave a herbicidal action (HORVS (Hordeum vulgare); 200 g AS/ha) of 40%, a herbicidal action (HORVS (Hordeum vulgare); 250 g AS/ha) of 50% and a herbicidal action (HORVS (Hordeum vulgare); 400 g AS/ha) of 60%. For the same compound, the herbicidal action (HORVS (Hordeum vulgare); 500 g AS/ha) was 60% and the “Herbicidal action (crop damage) HORVS” value (HORVS (Hordeum vulgare); [9]) was 15.
